# Measured values from patent publication US20020183333A1, “Compositions and methods for chemotherapy having reduced nephrotoxicity” (priority 2000, published 2002).
# “Also recorded” adds a separate entry of the source.
# Legend:
# LLC-WRC 256 cells [1] = assay: Antineoplastic efficacy of CP by trypan blue exclusion assay (percentage of non-viable cells); type: cell-based, rat; conditions: for effect of the inhibitor on the antineoplastic efficacy of cisplatin: 30 min preincubation with DFO 1 mM, DMSO 5 mM, CM 2 mM or PB 1 mM, then cisplatin 500 μg/ml for 5 hours, FIGS. 2 and 3
# Procedure: LLC-WRC 256 cells (Walker rat carcinoma cells) purchased from American Type Culture Collection (ATCC, Rockville, Maryland) were maintained in 75 cm^2 tissue culture flasks containing Medium 199 supplemented with 5% fetal bovine serum (Gibco, Gaithersburg, Md.) in a humidified atmosphere of 95% air-5% CO2 at 37° C. For the experimental study, the cell monolayers were subcultured with 0.25% trypsin into a 12-well tissue culture plate until confluence. The antineoplastic efficacy of CP in LLC-WRC 256 cells was measured by the cell viability determined by the trypan blue exclusion assay. Cells failing to exclude the dye were considered non-viable, and data expressed as the percentage of non-viable cells. Antineoplastic efficacy of CP was examined as previously described (Rawlings and Roberts, 1986, Mutation Research 166(2): 157-168.). The cells were incubated with various concentrations of CP (0-600 μg/ml) at different time points (0-6 h) in HBSS at 37° C. At the end of the incubation, the cell viability was determined. Confluent LLC-WRC 256 cell monolayer was incubated with antineoplastic dose of CP for a period of time necessary to induce consistent antineoplastic activity (CP 500 μg/ml in HBSS for 5 hours at 37° C., based on the. initial observation). The cell monolayers were preincubated with iron chelator, deferoxamine (1 mM) or hydroxyl radical scavenger, dimethyl sulfoxide (5 mM) at 37° C. for 30 minutes, washed twice with HBSS and then followed by the addition of CP. LLC-WRC 256 cell monolayers were preincubated with cimetidine (2 mM) or piperonyl butoxide (1 mM) at 37° C. for 30 min, washed with HBSS twice and then followed by the addition of CP (500 μg/ml for 5 hours at 37° C.)
# LLC-WRC 256 cells [2] = assay: Catalytic iron release into the medium, bleomycin assay; type: cell-based, rat; conditions: CP 500 μg/ml for 2.5 hours, n=6; control 2.44±0.59
# Procedure: Confluent […] 256 cells were washed twice with Chelex-treated HBSS and then incubated with a cytotoxic, dose of CP in Chelex-treated HBSS for a period of time before substantial cell killing occurred (500 μg/ml for 2.5 hours at 37° C., based on the time course study). The catalytic iron released into the medium was measured by the bleomycin assay, as described below. Iron capable of catalyzing free radical reactions (catalytic iron) was measured by the bleomycin assay as utilized in our previous studies (Baliga et al. , 1998, Kidney Int. 53:394-401, and Baliga et al., 1998, Kidney Int. 54:1562-1569). All reagents except for the experimental samples were made up in Chelex-treated pyrogen-free water and shaken with Chelex 100 to remove as much contaminating iron as possible. The reaction mixture contained in order: 0.5 ml of calf thymus DNA (1 mg/ml), 0.05 ml of bleomycin sulfate (1 mg/ml), 0.1 ml MgCl2 (50 mM), 0.1 ml of sample, 0.1 ml of ascorbic acid (8 mM), and either HCl (50 mM) or NaOH (50 mM) to adjust pH in the range of 7.2-7.8. […] The reaction mixture was then heated at 100° C. for 15 minutes, cooled and the resulting chromogen measured using spectrophotometer at A 532 nm. The amount of bleomycin detectable iron in the test sample was calculated from the standard curve and the results expressed as nmol/mg cellular protein recovered from the cell monolayer.
# LLC-WRC 256 cells [3] = assay: Hydroxyl radical formation, deoxyribose degradation method; type: cell-based, rat; conditions: CP 500 μg/ml for 2.5 hours, n=4; control 0.45±0.03
# Procedure: Confluent cell monolayers were washed with HBSS and then incubated with cytotoxic dose of CP in HBSS at 37° C. for a period of time before substantial cell killing occurred (500 μg/ml for 2.5 hours). 2-deoxy-D-ribose at a final concentration of 3 mM was added to the medium just prior to the incubation. At the end of the incubation, the medium was collected for the measurement of hydroxyl radical formation by deoxyribose degradation method as described by Halliwell et al., 1988, Meth. Biochem. Anal 33:59-90. In brief, 0.5 ml of the incubation medium was mixed with 0.5 ml of 1% (w/v). 5 thiobarbituric acid in 50 mM NaOH and 0.5 ml of 2.8% (w/v) aqueous trichloroacetic acid, heated at 100° C. for 15 min, cooled and followed by extraction with 1.5ml n-butanol. The absorbance at 532 nm of the resulting supernatant was then taken, and the hydroxyl radical level was calculated by using the extinction coefficient of 156 mM^−1 cm^−1.
# [4] = test system: cardiotoxicity induced by doxorubicin; conditions: women with breast cancer; cited from earlier work
compound,measurement,setting,value
"CN/C(=N/CCSCc1nc[nH]c1C)NC#N [CM, cimetidine]",effect of the inhibitor on the antineoplastic efficacy of cisplatin,LLC-WRC 256 cells [1],does not reduce the antineoplastic efficacy of CP; also recorded: do not effect the antineoplastic activity of CP
"N.N.[Cl][Pt][Cl] [CP, cisplatin]",catalytic iron release,LLC-WRC 256 cells [2],2.78±0.41 nmol/mg protein
same,time of exposure that results in significant cell death,"LLC-WRC 256 cells [1]; CP 500 μg/ml, time course 0-6 hours, FIG. 1B",5 h
same,low dose at which significant cell death occurs,"LLC-WRC 256 cells [1]; LLC-WRC 256 cells, 4 hour incubation, CP 0-600 μg/ml, FIG. 1A",50 µg/mL
same,CP dose required to produce submaximal injury,"LLC-WRC 256 cells [1]; LLC-WRC 256 cells, concentration dependent effects, FIG. 1A",500 µg/mL
same,generation of hydroxyl radical,LLC-WRC 256 cells [3],0.41±0.03 nmol/mg protein
"C[S+](C)[O-] [DMSO, dimethyl sulfoxide]",effect of the inhibitor on the antineoplastic efficacy of cisplatin,LLC-WRC 256 cells [1],CP still functions as an antineoplastic compound; also recorded: does not reduce the antineoplastic efficacy of CP
C[C@@H](CN1CC(=O)NC(=O)C1)N1CC(=O)NC(=O)C1 [dexrazoxane],effect on frequency and severity of doxorubicin-induced cardiotoxicity,[4],decrease the frequency and severity of cardiotoxicity
